{"source": "ChEMBL document CHEMBL5465560", "about": "“Selectivity Literature for EUbOPEN Chemogenomic Library” (2024)", "key": {"[1]": {"target": "RAC-gamma serine/threonine-protein kinase (Homo sapiens, UniProt Q9Y243)", "sequence (Q9Y243 whole entry)": "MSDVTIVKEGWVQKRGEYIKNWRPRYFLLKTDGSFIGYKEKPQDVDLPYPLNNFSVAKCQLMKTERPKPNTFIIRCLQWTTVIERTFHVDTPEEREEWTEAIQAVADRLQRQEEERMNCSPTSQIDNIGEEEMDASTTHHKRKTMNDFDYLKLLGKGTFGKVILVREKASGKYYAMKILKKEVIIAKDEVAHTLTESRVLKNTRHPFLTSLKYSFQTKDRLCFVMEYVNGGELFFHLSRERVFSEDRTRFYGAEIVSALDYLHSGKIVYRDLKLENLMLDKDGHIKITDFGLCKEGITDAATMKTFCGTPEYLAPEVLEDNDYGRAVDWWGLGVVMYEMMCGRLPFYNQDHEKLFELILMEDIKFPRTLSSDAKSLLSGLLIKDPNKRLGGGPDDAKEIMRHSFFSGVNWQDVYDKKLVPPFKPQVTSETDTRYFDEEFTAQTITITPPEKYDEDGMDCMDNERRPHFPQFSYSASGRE", "test": "Selectivity interaction (Kinase panel (Z-LYTE Assay)) EUB0001632a AKT3", "details": "at 10 µM"}, "[2]": {"target": "T1, Peripheral plasma membrane protein CASK (Homo sapiens) (UniProt O14936)", "T1 sequence (whole entry)": "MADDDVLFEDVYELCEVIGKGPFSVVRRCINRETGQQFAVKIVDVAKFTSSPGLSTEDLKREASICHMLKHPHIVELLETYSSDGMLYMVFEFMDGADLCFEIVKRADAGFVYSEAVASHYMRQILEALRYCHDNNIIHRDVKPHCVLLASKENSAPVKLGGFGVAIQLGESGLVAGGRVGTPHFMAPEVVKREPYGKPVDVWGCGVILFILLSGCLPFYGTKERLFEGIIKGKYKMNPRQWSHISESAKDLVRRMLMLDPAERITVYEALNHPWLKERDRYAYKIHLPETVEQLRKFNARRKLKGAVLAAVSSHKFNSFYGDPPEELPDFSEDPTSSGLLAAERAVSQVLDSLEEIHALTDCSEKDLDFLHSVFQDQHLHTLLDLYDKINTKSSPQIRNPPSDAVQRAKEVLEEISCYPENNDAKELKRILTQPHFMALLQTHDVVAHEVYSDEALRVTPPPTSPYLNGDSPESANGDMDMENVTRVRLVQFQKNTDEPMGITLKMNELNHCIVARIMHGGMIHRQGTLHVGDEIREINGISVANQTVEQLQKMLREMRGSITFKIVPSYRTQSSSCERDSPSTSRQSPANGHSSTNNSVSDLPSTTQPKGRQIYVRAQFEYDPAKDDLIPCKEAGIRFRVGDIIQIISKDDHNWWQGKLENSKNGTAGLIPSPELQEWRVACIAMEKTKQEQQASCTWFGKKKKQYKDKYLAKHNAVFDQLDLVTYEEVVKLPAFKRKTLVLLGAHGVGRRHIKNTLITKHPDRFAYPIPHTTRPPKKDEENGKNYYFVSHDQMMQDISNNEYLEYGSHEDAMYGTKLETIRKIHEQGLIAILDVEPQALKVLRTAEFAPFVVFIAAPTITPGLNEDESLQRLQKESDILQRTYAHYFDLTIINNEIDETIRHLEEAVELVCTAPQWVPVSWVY", "test": "Selectivity interaction (LanthaScreen Eu Kinase Binding Assay) EUB0001632a CASK", "details": "at 10 µM"}, "[3]": {"target": "Cyclin-dependent kinase 14 (Homo sapiens) (UniProt O94921)", "sequence (O94921 whole entry)": "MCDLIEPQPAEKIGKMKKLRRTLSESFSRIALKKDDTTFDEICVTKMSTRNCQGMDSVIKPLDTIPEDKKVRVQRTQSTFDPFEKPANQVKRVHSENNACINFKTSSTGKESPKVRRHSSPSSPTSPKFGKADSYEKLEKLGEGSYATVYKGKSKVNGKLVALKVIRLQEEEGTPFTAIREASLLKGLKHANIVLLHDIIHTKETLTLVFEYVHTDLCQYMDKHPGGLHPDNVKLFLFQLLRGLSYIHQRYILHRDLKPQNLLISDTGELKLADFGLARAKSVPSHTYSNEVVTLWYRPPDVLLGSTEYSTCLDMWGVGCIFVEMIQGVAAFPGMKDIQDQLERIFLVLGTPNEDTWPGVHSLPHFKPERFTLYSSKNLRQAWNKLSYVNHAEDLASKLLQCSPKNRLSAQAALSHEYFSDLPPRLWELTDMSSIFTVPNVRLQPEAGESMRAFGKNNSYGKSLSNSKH", "test": "Selectivity interaction (KinomeScan (DiscoverX)) EUB0001049a CDK14", "details": "at 1 µM"}, "[4]": {"target": "Dual specificity protein kinase CLK3 (Homo sapiens, UniProt P49761)", "sequence (P49761 whole entry)": "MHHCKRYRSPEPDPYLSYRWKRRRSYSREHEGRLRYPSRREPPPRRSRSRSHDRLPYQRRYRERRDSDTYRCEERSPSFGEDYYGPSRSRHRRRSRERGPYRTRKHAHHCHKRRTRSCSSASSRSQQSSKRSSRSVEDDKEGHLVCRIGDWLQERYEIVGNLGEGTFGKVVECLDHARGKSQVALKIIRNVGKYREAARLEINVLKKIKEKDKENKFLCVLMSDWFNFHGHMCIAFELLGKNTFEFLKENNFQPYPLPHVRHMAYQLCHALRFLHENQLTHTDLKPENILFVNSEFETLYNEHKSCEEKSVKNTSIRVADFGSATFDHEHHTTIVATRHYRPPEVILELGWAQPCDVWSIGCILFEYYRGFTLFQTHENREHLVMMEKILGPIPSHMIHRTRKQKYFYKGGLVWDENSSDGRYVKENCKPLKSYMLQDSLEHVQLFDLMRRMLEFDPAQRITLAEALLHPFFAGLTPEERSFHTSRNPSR", "test": "Selectivity interaction (Enzymatic assay (Eurofins)) EUB0001049a CLK3"}, "[5]": {"target": "Serine/threonine-protein kinase PLK3 (Homo sapiens, UniProt Q9H4B4)", "sequence (Q9H4B4 whole entry, looked up)": "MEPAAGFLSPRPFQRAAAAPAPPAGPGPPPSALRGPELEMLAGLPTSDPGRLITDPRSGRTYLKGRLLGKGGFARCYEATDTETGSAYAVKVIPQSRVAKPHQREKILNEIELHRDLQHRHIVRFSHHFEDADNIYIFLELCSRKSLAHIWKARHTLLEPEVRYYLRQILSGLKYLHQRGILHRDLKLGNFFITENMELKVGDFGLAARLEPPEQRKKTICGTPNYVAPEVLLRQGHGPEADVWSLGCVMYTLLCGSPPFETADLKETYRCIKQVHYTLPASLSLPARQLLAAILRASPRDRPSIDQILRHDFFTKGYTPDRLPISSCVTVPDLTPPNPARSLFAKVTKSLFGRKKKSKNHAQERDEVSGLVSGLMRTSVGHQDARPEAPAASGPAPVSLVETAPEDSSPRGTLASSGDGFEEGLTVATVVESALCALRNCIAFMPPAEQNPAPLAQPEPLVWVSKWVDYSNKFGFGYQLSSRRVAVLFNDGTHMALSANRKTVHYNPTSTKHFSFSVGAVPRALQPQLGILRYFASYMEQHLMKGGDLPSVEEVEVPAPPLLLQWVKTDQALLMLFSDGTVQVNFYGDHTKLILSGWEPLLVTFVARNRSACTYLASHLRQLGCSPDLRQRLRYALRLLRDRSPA", "test": "Selectivity interaction (Upstate Kinase Profiler service (Millipore)) EUB0000056c PLK3", "details": "at 1 µM"}, "[6]": {"target": "T2, Mitogen-activated protein kinase kinase kinase 5 (Homo sapiens) (UniProt Q99683)", "T2 sequence (whole entry)": "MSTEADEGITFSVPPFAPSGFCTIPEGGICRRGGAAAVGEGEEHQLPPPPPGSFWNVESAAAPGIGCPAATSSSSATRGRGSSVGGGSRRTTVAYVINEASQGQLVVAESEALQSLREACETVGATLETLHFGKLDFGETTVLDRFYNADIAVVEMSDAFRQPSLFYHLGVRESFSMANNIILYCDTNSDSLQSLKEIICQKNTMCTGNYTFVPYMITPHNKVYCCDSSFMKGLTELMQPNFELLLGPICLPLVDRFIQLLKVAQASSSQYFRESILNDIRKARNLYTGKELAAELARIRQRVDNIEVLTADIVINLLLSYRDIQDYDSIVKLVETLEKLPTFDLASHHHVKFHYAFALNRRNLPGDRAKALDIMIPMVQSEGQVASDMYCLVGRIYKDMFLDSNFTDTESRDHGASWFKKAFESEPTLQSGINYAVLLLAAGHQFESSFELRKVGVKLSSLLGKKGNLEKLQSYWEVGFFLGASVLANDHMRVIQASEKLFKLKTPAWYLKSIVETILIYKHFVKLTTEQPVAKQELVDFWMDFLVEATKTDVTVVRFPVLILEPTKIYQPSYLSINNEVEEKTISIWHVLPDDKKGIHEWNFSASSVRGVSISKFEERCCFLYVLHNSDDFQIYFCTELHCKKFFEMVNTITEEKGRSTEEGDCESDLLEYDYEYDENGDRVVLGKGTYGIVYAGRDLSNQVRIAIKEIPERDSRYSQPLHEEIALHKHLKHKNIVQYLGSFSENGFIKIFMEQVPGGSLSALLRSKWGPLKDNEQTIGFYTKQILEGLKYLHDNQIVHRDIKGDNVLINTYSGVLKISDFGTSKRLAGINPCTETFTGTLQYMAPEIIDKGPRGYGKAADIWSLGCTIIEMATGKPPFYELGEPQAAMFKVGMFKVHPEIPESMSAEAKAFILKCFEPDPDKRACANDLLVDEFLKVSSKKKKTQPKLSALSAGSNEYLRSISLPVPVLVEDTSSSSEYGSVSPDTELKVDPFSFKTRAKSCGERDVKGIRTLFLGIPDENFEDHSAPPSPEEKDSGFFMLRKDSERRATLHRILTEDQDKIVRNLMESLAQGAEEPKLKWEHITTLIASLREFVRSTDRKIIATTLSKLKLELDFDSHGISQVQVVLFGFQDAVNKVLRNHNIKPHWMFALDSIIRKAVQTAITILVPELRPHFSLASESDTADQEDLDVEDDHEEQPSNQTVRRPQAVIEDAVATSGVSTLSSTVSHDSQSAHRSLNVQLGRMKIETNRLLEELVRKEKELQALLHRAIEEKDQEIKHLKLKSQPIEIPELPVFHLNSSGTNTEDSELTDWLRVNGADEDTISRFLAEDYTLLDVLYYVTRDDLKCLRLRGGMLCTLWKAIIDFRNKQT", "test": "Selectivity interaction (Kinase panel (DSF assay)) EUB0001558a MAP3K5"}, "[7]": {"target": "Glycogen synthase kinase-3 alpha (Homo sapiens, UniProt P49840)", "sequence (P49840 2-483 limits assumed)": "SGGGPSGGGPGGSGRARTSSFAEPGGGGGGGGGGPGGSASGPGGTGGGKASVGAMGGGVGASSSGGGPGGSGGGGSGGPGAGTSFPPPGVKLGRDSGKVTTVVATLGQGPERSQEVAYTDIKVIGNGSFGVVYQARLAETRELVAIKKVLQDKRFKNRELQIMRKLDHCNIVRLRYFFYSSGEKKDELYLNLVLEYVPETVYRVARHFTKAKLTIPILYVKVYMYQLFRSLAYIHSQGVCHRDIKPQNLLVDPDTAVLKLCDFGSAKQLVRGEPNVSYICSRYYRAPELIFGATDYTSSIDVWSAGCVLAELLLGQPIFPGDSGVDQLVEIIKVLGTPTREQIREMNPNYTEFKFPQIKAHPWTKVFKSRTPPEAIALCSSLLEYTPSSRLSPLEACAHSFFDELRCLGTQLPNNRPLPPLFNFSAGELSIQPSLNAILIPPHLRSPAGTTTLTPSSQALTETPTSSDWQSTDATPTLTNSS", "details": "at 10 µM"}}}
{"smiles": "Cn1cc(-n2cnc3c(NCc4nc5cc(Cl)c(Cl)cc5[nH]4)nc(N4CCOCC4)nc32)cn1", "values": [{"measurement": "% of control", "setting": "[1]", "value": 2.65, "unit": "%"}, {"measurement": "% of inhibition", "setting": "[2]", "value": -92.6, "unit": "%"}]}
{"smiles": "COc1cc(Nc2nc(C)cc(-c3cnn4nc(OC)ccc34)n2)cc(C(F)(F)F)c1", "values": [{"measurement": "% of control", "setting": "[3]", "value": 87, "unit": "%"}, {"measurement": "IC50", "setting": "[4]", "value": "> 10", "unit": "µM"}]}
{"smiles": "Cc1ccc(-c2ccc3c(ccc4sc5c(c43)NC[C@@H](C)NC5=O)n2)cn1", "values": [{"measurement": "% of inhibition", "setting": "[5]", "value": -2, "unit": "%"}]}
{"smiles": "CC(C)(O)[C@H](F)CN1Cc2cc(NC(=O)c3cnn4cccnc34)c(N3CCOCC3)cc2C1=O", "values": [{"measurement": "dTM", "setting": "[6]", "value": 0.5, "unit": "K"}]}
{"smiles": "CCN(CC)CCCCNc1ncc2cc(-c3cc(OC)cc(OC)c3)c(NC(=O)NC(C)(C)C)nc2n1", "values": [{"measurement": "% of control", "setting": "[7]", "value": 100, "unit": "%"}]}
